Experimental data: ChEMBL document CHEMBL3616371, “Synthesis of BF₃ catalyzed Mannich derivatives with excellent ee from phenylpropanolamine, study of their antimicrobial activity and molecular docking” (2015)

Legend:
Staphylococcus aureus [1] = assay: Antibacterial activity against Staphylococcus aureus assessed as growth inhibition at 1 mg/well after 24 hrs by Well method; type: functional
[2] = tested on: Staphylococcus epidermidis; assay: Antibacterial activity against Staphylococcus epidermidis assessed as growth inhibition at 1 mg/well after 24 hrs by Well method; type: functional
Staphylococcus aureus [3] = assay: Antibacterial activity against methicillin-resistant Staphylococcus aureus assessed as growth inhibition at 1 mg/well after 24 hrs by Well method; type: functional
[4] = tested on: Salmonella enterica subsp. enterica serovar Paratyphi B; assay: Antibacterial activity against Salmonella paratyphi B assessed as growth inhibition at 1 mg/well after 24 hrs by Well method; type: functional
Salmonella typhimurium [5] = assay: Antibacterial activity against Salmonella typhimurium assessed as growth inhibition at 1 mg/well after 24 hrs by Well method; type: functional, Salmonella enterica subsp. enterica serovar Typhimurium
Proteus vulgaris [6] = assay: Antibacterial activity against Proteus vulgaris assessed as growth inhibition at 1 mg/well after 24 hrs by Well method; type: functional
Micrococcus luteus [7] = assay: Antibacterial activity against Micrococcus luteus assessed as growth inhibition at 1 mg/well after 24 hrs by Well method; type: functional
Klebsiella pneumoniae [8] = assay: Antibacterial activity against Klebsiella pneumoniae assessed as growth inhibition at 1 mg/well after 24 hrs by Well method; type: functional
Shigella flexneri [9] = assay: Antibacterial activity against Shigella flexneri assessed as growth inhibition at 1 mg/well after 24 hrs by Well method; type: functional
Bacillus subtilis [10] = assay: Antibacterial activity against Bacillus subtilis assessed as growth inhibition at 1 mg/well after 24 hrs by Well method; type: functional
Pseudomonas aeruginosa [11] = assay: Antibacterial activity against Pseudomonas aeruginosa assessed as growth inhibition at 1 mg/well after 24 hrs by Well method; type: functional
Aspergillus flavus [12] = assay: Antifungal activity against Aspergillus flavus assessed as growth inhibition at 1 mg/well after 48 hrs by Well method; type: functional
Staphylococcus aureus [13] = assay: Antibacterial activity against Staphylococcus aureus after 24 hrs by two fold serial dilution method; type: functional
[14] = tested on: Staphylococcus epidermidis; assay: Antibacterial activity against Staphylococcus epidermidis after 24 hrs by two fold serial dilution method; type: functional
Staphylococcus aureus [15] = assay: Antibacterial activity against methicillin-resistant Staphylococcus aureus after 24 hrs by two fold serial dilution method; type: functional
[16] = tested on: Salmonella enterica subsp. enterica serovar Paratyphi B; assay: Antibacterial activity against Salmonella paratyphi B after 24 hrs by two fold serial dilution method; type: functional
Salmonella typhimurium [17] = assay: Antibacterial activity against Salmonella typhimurium after 24 hrs by two fold serial dilution method; type: functional, Salmonella enterica subsp. enterica serovar Typhimurium; details: Salmonella enterica
Proteus vulgaris [18] = assay: Antibacterial activity against Proteus vulgaris after 24 hrs by two fold serial dilution method; type: functional
Micrococcus luteus [19] = assay: Antibacterial activity against Micrococcus luteus after 24 hrs by two fold serial dilution method; type: functional
Klebsiella pneumoniae [20] = assay: Antibacterial activity against Klebsiella pneumoniae after 24 hrs by two fold serial dilution method; type: functional
Shigella flexneri [21] = assay: Antibacterial activity against Shigella flexneri after 24 hrs by two fold serial dilution method; type: functional
Bacillus subtilis [22] = assay: Antibacterial activity against Bacillus subtilis after 24 hrs by two fold serial dilution method; type: functional
Pseudomonas aeruginosa [23] = assay: Antibacterial activity against Pseudomonas aeruginosa after 24 hrs by two fold serial dilution method; type: functional
Aspergillus flavus [24] = assay: Antifungal activity against Aspergillus flavus after 48 to 72 hrs by two fold serial dilution method; type: functional
Klebsiella aerogenes [25] = assay: Antibacterial activity against Enterobacter aerogenes assessed as growth inhibition at 1 mg/well after 24 hrs by Well method; type: functional
Klebsiella aerogenes [26] = assay: Antibacterial activity against Enterobacter aerogenes after 24 hrs by two fold serial dilution method; type: functional
Candida albicans [27] = assay: Antifungal activity against Candida albicans assessed as growth inhibition at 1 mg/well after 48 hrs by Well method; type: functional
Malassezia pachydermatis [28] = assay: Antifungal activity against Malassezia pachydermatis assessed as growth inhibition at 1 mg/well after 48 hrs by Well method; type: functional
Candida albicans [29] = assay: Antifungal activity against Candida albicans after 48 to 72 hrs by two fold serial dilution method; type: functional
Malassezia pachydermatis [30] = assay: Antifungal activity against Malassezia pachydermatis after 48 to 72 hrs by two fold serial dilution method; type: functional

| SMILES | inhibition zone (IZ) (Staphylococcus aureus [1]) [mm] | inhibition zone (IZ) [2] [mm] | inhibition zone (IZ) (Staphylococcus aureus [3]) [mm] | inhibition zone (IZ) [4] [mm] | inhibition zone (IZ) (Salmonella typhimurium [5]) [mm] | inhibition zone (IZ) (Proteus vulgaris [6]) [mm] | inhibition zone (IZ) (Micrococcus luteus [7]) [mm] | inhibition zone (IZ) (Shigella flexneri [9]) [mm] | inhibition zone (IZ) (Bacillus subtilis [10]) [mm] | inhibition zone (IZ) (Pseudomonas aeruginosa [11]) [mm] | MIC (Staphylococcus aureus [13]) [µg/mL] | MIC [14] [µg/mL] | MIC (Staphylococcus aureus [15]) [µg/mL] | MIC [16] [µg/mL] | MIC (Salmonella typhimurium [17]) [µg/mL] | MIC (Proteus vulgaris [18]) [µg/mL] | MIC (Micrococcus luteus [19]) [µg/mL] | MIC (Shigella flexneri [21]) [µg/mL] | MIC (Bacillus subtilis [22]) [µg/mL] | MIC (Pseudomonas aeruginosa [23]) [µg/mL] | other results |
| --- | --- | --- | --- | --- | --- | --- | --- | --- | --- | --- | --- | --- | --- | --- | --- | --- | --- | --- | --- | --- | --- |
| COc1ccc(C(=O)CCN[C@@H](C)[C@H](O)c2ccccc2)cc1.Cl | 18 | 22 | 20 | 20 | 17 | 21 | 23 | 21 | 19 | 20 | 50 | 25 | 50 | 50 | 50 | 50 | 25 | 50 | 25 | 25 | inhibition zone (IZ) (Klebsiella pneumoniae [8]): 12 mm; inhibition zone (IZ) (Aspergillus flavus [12]): 10 mm; MIC (Klebsiella pneumoniae [20]): > 50 µg/mL; MIC (Aspergillus flavus [24]): > 50 µg/mL; inhibition zone (IZ) (Klebsiella aerogenes [25]): 20 mm; MIC (Klebsiella aerogenes [26]): 50 µg/mL |
| C[C@H](NCCC(=O)c1cccc([N+](=O)[O-])c1)[C@H](O)c1ccccc1.Cl | 15 | 19 | 15 | 12 | 17 | 18 | 19 | 16 | 15 | 16 | 50 | 50 | 50 | > 50 | 50 | 50 | 50 | 50 | 50 | 50 | inhibition zone (IZ) (Candida albicans [27]): 12 mm; inhibition zone (IZ) (Malassezia pachydermatis [28]): 13 mm; MIC (Candida albicans [29]): > 50 µg/mL; MIC (Malassezia pachydermatis [30]): > 50 µg/mL; inhibition zone (IZ) (Klebsiella aerogenes [25]): 16 mm; MIC (Klebsiella aerogenes [26]): 50 µg/mL |
